Reference: patent US10722496B2, “2-iminobiotin for use in the treatment of brain cell injury” (Neurophyxia B.V., priority 2015, dated 2020)
Where “and” joins values, the source holds several entries; their conditions need not be identical. Equal entries are not always repeated.

Experiments:
[1] = test system: IMR-32 cell cultures; assay: ROS fluorometric assay after hypoxia under mild hypothermia; assay type: cell-based, human
Procedure: In-vitro hypoxia was induced for 7 hours using IMR-32 cell cultures. After the hypoxic insult, cultures were subjected to 25 hours of mild hypothermia (33.5° C.) and were incubated with or without 2-IB (10, 30, 50, 100 and 300 ng/ml). Cell morphology was evaluated by brightfield microscopy and cell damage was analyzed by LDH assays. Production of reactive oxygen species (ROS) was measured using fluorometric assays. Western blotting for PARP and phosphorylated as well as unphosphorylated akt and erkl/2 was performed.

[2] = test system: 4VO rat model; assay: Morris water maze after four-vessel occlusion (4VO); assay type: in vivo; conditions: for memory test, time spent in the right quadrant on day 32: 12 and 24 hours, mean±SD
Procedure: The rats were anesthetized using ketamine (90 mg/kg) and xylazine sodium ([…]), as described earlier (Meilin et al., 2014). The first cervical vertebrata was exposed and the vertebral arteries were permanently occluded by electrocauterization. The common carotid arteries were isolated through a ventral midline neck incision and lifted using a 4.0 silk suture ligature, placed around them.
Twenty-four hours post vertebral arterial occlusion, the animals were reanesthetized using isoflurane. The common carotid arteries were exposed and occluded using microaneurysm clips for 15 minutes. After removing the clips reperfusion occurred. The skin of the incision at the neck was sutured using 4-0 silk suture. During the operation animal's core temperature was monitored using a rectal probe (Model 400; YSI Inc., Yellow Springs, Ohio, USA) connected to a thermometer (Model 8402-00; Cole-Parmer Instrument Co. Ltd, London, UK). The ischemic insult was initiated when a rectal temperature of 37-38° C. was achieved, and this temperature was maintained throughout the procedure using a heating mattress.
During the acclimatization period rats were randomly assigned to experimental groups. The animals were subjected to 4VO per cage or one rat per cage was subjected to HI. Rats received either vehicle (normal saline at pH 3.8-4.0) or 2-IB (1.1 mg/kg, 3.3 mg/kg, 10 mg/kg and 30 mg/kg dissolved in 5 ml/kg normal saline at pH 3.8-4.0). Each dosing group was kept in separate cages to avoid cross-contamination by consuming stools during the study period. The experimental groups were as follows.
Tests were performed during day-time. Rats were introduced to a standardized 1.2 m-diameter pool filled with water for 120 seconds or until they located a platform hidden 1 cm below the water surface. Several visual cues were provided within the room in which the pool was located to allow rats to spatially navigate the water maze. […] Rats were allowed two attempts to find the hidden platform, and this learning test was performed over a period of 4 days (days 28-31). The memory test was performed on the fifth day (day 32), at which time the hidden platform was removed, and rats were placed in the pool for a single 60-second trial. The amount of time that each rat spent in the quadrant, where the hidden platform had previously been located, was recorded by an observer who was blinded to the experimental groups.
The Morris water maze was used to evaluate how well the rats remembered the location of the hidden platform, and whether they had learned to navigate towards the appropriate quadrant. The time that the rat spent in the right quadrant was measured. This was considered the primary outcome.
During the learning test the time to find a hidden platform in the water was calculated. Also the area under the curve (AUC) of the subsequent learning tests was calculated. These parameters were considered secondary outcomes.

[3] = Dose prediction simulations from covariate PK models; design: species or system human; Sim. AUCinf when dosing based on Crea0 from Table 6 / Sim. AUCinf when dosing based on eGFR: unit not given here
Procedure: Models were generated in order to determine the impact of dose adjustments and variability of AUC.
[…] and can be easily derived. (D=dose; CL=clearance)
An exploratory covariate analysis was performed looking at body weight, age, eGFR, SeCre, and Core temperature. The model used was as follows:
Dose correction for use at lower temperatures can be determined using the following equation: […]

## N=C1N[C@H]2[C@H](CS[C@H]2CCCCC(=O)O)N1 [2-IB, 2-iminobiotin]
[1]; 30 ng/ml 2-IB post-hypoxic, mild hypothermia (33.5° C.)
  hypoxia-induced ROS production: attenuated the hypoxia-induced ROS production under hypothermic conditions
[1]; higher concentrations of 2-IB (above 30 ng/ml), mild hypothermia
  hypoxia-induced ROS generation: less effective in reducing hypoxia-induced ROS generation
[2]; 1.1 mg/kg/dose s.c.
  AUC of the learning test from day 28 until 31: 276±85
[2]; 1.1 mg/kg/dose s.c. upon reperfusion
  memory test, time spent in the right quadrant on day 32: 10.7 ± 4.4 s
[2]; 3.3 mg/kg/dose s.c.
  AUC of the learning test from day 28 until 31: 266±64
[2]; 3.3 mg/kg/dose s.c. upon reperfusion
  memory test, time spent in the right quadrant on day 32: 12.7 ± 6.7 s
[2]; 10 mg/kg/dose s.c.
  AUC of the learning test from day 28 until 31: 297±79
[2]; 10 mg/kg/dose s.c. upon reperfusion
  memory test, time spent in the right quadrant on day 32: 12.0 ± 7.3 s
[2]; 30 mg/kg/dose s.c.
  AUC of the learning test from day 28 until 31: 287±89
[2]; 30 mg/kg/dose s.c. upon reperfusion
  memory test, time spent in the right quadrant on day 32: 12.5 ± 6.0 s
[2]; 1.1 (p<0.05), 3.3 (p<0.01) and 30 mg/kg/dose (p<0.05), Dunnett's post hoc
  learning test day 28 to day 31, time to find the hidden platform vs vehicle-treated rats: significant difference
[3]; Table 8, covariate model with Crea0, individual patient (ID 1-8)
  Sim. AUCinf when dosing based on 4.8 mg for all: 220 and 292 and 765 and 847 and 642 and 993 and 427 and 266
[3]; Table 8, individual patient (ID 1-8)
  Sim. AUCinf when dosing based on Crea0 from Table 6: 676 and 494 and 588 and 781 and 692 and 1070 and 722 and 327
[3]; Table 10, covariate model with eGFR, individual patient (ID 1-8)
  Sim. AUCinf when dosing based on 4.8 mg for all: 306 and 302 and 814 and 873 and 484 and 856 and 472 and 269
[3]; Table 10, Max of 8 patients
  Sim. AUCinf when dosing based on 4.8 mg for all: 873
  Sim. AUCinf when dosing based on eGFR: 922
[3]; Table 10, Mean of 8 patients
  Sim. AUCinf when dosing based on 4.8 mg for all: 547
  Sim. AUCinf when dosing based on eGFR: 679
[3]; Table 10, Median of 8 patients
  Sim. AUCinf when dosing based on 4.8 mg for all: 478
  Sim. AUCinf when dosing based on eGFR: 713
[3]; Table 10, Min of 8 patients
  Sim. AUCinf when dosing based on 4.8 mg for all: 269
  Sim. AUCinf when dosing based on eGFR: 415
[3]; Table 10, individual patient (ID 1-8)
  Sim. AUCinf when dosing based on eGFR: 802 and 465 and 626 and 806 and 596 and 922 and 800 and 415
[3]; given the same Crea0, temperature correction equation
  CL at 33° relative to the CL at 36°: 37%
